# Patent US10150733B2, “Amidoheteroaryl aroyl hydrazide ethynes” (SUN PHARMA ADVANCED RESEARCH COMPANY LTD., priority 2015, dated 2018)
# Experiments:
# [1] = test system: c-Abl kinase (K562 cells); assay: In-vitro cell proliferation assay (MTT), K562 cells; assay type: cell-based; details: for inhibition at 0.001 µM / inhibition at 0.01 µM / inhibition at 0.1 µM: Homo sapiens
# Experimental: In-vitro Cell Proliferation Assay
# K562/U937 cells (2×10^4 per well) were incubated with the test compounds/vehicle in a total volume of 200 μL of media at 37° C. with 5% CO2. On day 4, 20 μL MTT 5 mg/ml was added and the cells were incubated for 4-5 hours followed by addition of 100 μL of 10% SDS prepared in 0.06N HCl. The cells were incubated overnight at 37° C. with 5% CO2. On Day 5 the optical density was measured at 570 nm with 630 nm as reference wavelength. The optical density in the vehicle treated wells was compared with that of the test compound treated wells.
# [2] = target: mutated Abl (T315I) (human) (Homo sapiens, UniProt P00519, T315I); assay: Mutated Abl (T315I) (human) kinase assay, 33P-ATP filter binding; assay type: biochemical; details: for inhibition at 0.003 µM: 3 nM; for inhibition at 0.03 µM: 30 nM
# Experimental: Mutated Abl (T315I) (Human)Kinase
# In a final reaction volume of 25 μL, mutated Abl (T315I) (human) (5-10 mU) is incubated with 8 mM MOPS pH7.0, 0.2 mM EDTA, […] EAIYAAPFAKKK, 10 mM Mg(OAc)2 and [γ-33P-ATP] [specific activity approx. 500 cpm/pmol, concentration as required]. The reaction is initiated by the addition of the MgATP mix. After incubation for 40 minutes at room temperature, the reaction is stopped by the addition of 5 μL of a 3% phosphoric acid solution. 10 μL of the reaction is then spotted onto a P30 filtermat and washed three times for 5 minutes in 75 mM phosphoric acid and once in methanol prior to drying and scintillation counting.
Structure (SMILES),inhibition at 0.001 µM ([1]; 1 nM),inhibition at 0.01 µM ([1]; 10 nM),inhibition at 0.1 µM ([1]; 100 nM),inhibition at 0.003 µM [2],inhibition at 0.03 µM [2],c-Abl kinase (K562 cells); % Inhibition ([1]; 1 nM),c-Abl kinase (K562 cells); % Inhibition ([1]; 10 nM),c-Abl kinase (K562 cells); % Inhibition ([1]; 100 nM)
"Cc1ccc(C(=O)NNC(=O)c2c(C)cccc2Cl)cc1C#Cc1ccc(NC(=O)C2CC2)nc1 [I.1, cyclopropanecarboxylic acid (5-{5-[N′-(2-chloro-6-methylbenzoyl)hydrazinocarbonyl]-2-methyl-phenylethynyl}-pyridin-2-yl)amide]",84.7%,91.1%,87%,87%,98%,–,–,–
"Cc1ccc(C(=O)NNC(=O)c2c(C)cccc2Cl)cc1C#Cc1ccc(NC(=O)CN(C)C)nc1 [I.2, N-(5-{5-[N′-(2-chloro-6-methylbenzoyl)hydrazinocarbonyl]-2-methyl-phenylethynyl}-pyridin-2-yl)-2-dimethylaminoacetamide]",71.6%,82.5%,82.9%,50%,87%,–,–,–
"Cc1ccc(C(=O)NNC(=O)c2c(C)cccc2Cl)cc1C#Cc1ccc(NC(=O)CCN2CCN(C)CC2)nc1 [I.3, N-(5-{5-[N′-(2-Chloro-6-methylbenzoyl)hydrazinocarbonyl]-2-methyl-phenylethynyl}-pyridin-2-yl)-3-(4-methyl-piperazin-1-yl)propionamide]",75%,85.5%,87.9%,59%,94%,–,–,–
"Cc1ccc(C(=O)NNC(=O)c2c(C)cccc2Cl)cc1C#Cc1ccc(NC(=O)CN2CCC(N(C)C)CC2)nc1 [I.4, N-(5-{5-[N′-(2-Chloro-6-methyl-benzoyl)hydrazinocarbonyl]-2-methyl-phenylethynyl}-pyridin-2-yl)-2-(4-dimethylaminopiperidin-1-yl)acetamide]",76.5%,81.4%,86.9%,70%,95%,–,–,–
"Cc1ccc(C(=O)NNC(=O)c2c(C)cccc2Cl)cc1C#Cc1ccc(NC(=O)CN2CCC(N(C)C)C2)nc1 (centres unmarked) [I.5, N-(5-{5-[N′-(2-Chloro-6-methyl-benzoyl)hydrazinocarbonyl]-2-methyl-phenylethynyl}-pyridin-2-yl)-2-(3-dimethylaminopyrrolidin-1-yl)acetamide]",71.4%,81.7%,82.1%,66%,96%,–,–,–
"CC(=O)Nc1ccc(C#Cc2cc(C(=O)NNC(=O)c3c(C)cccc3Cl)ccc2C)cn1 [I.6, N-(5-{5-[N′-(2-Chloro-6-methyl-benzoyl)hydrazinocarbonyl]-2-methyl-phenylethynyl}-pyridin-2-yl)acetamide]",88.4%,91.6%,91%,68%,89%,–,–,–
"Cc1ccc(C(=O)NNC(=O)c2ccc(CN3CCN(C)CC3)cc2)cc1C#Cc1ccc(NC(=O)C2CC2)nc1 [I.7, Cyclopropanecarboxylic acid [5-(2-methyl-5-{N′-[4-(4-methylpiperazin-1-ylmethyl)benzoyl]-hydrazinocarbonyl}phenylethynyl)pyridin-2-yl]amide]",24.6%,78.6%,85.9%,–,–,–,–,–
"Cc1cn(-c2cc(C(=O)NNC(=O)c3ccc(C)c(C#Cc4ccc(NC(=O)C5CC5)nc4)c3)cc(C(F)(F)F)c2)cn1 [I.8, Cyclopropanecarboxylic acid [5-(2-methyl-5-{N′-[3-(4-methylimidazol-1-yl)-5-trifluoromethylbenzoyl]-hydrazinocarbonyl}phenylethynyl)pyridin-2-yl]amide]",68.9%,84%,86.1%,–,–,–,–,–
"Cc1ccc(C(=O)NNC(=O)c2c(C)cccc2Cl)cc1C#Cc1ccc(NC(=O)NC2CC2)nc1 [I.9, 1-(5-{5-[N′-(2-Chloro-6-methyl-benzoyl)-hydrazinocarbonyl]-2-methyl-phenylethynyl}-pyridin-2-yl)-3-cyclopropylurea]",61%,83.6%,87.8%,–,–,–,–,–
Cc1ccc(C(=O)NNC(=O)c2c(C)cccc2Cl)cc1C#Cc1ccc(NC(=O)C(F)(F)F)nc1 [I.10],–,–,–,–,–,39.8%,78.5%,73.3%
"Cc1ccc(C(=O)NNC(=O)c2ccc(CN3CCN(C)CC3)c(C(F)(F)F)c2)cc1C#Cc1ccc(NC(=O)C2CC2)nc1 [I.11, Cyclopropanecarboxylic acid [5-(2-methyl-5-{N′-[4-(4-methylpiperazin-1-yl-methyl)-3-trifluoromethylbenzoyl]-hydrazinocarbonyl}phenylethynyl)pyridin-2-yl]amide]",54%,58.3%,57.2%,–,–,–,–,–
CCCC(=O)Nc1ccc(C#Cc2cc(C(=O)NNC(=O)c3c(C)cccc3Cl)ccc2C)cn1 [I.12],–,–,–,–,–,33.6%,80.6%,–
